Blank lines part the entries; values can stand above or below the compound they belong to.
How the values were obtained:
[1] = target: T1, Cyclin-dependent kinase 11A (Homo sapiens) (UniProt Q9UQ88); assay: Selectivity interaction (KinomeScan (DiscoverX)) EUB0000607a CDK11A; settings: at 10 µM
T1 sequence (whole entry): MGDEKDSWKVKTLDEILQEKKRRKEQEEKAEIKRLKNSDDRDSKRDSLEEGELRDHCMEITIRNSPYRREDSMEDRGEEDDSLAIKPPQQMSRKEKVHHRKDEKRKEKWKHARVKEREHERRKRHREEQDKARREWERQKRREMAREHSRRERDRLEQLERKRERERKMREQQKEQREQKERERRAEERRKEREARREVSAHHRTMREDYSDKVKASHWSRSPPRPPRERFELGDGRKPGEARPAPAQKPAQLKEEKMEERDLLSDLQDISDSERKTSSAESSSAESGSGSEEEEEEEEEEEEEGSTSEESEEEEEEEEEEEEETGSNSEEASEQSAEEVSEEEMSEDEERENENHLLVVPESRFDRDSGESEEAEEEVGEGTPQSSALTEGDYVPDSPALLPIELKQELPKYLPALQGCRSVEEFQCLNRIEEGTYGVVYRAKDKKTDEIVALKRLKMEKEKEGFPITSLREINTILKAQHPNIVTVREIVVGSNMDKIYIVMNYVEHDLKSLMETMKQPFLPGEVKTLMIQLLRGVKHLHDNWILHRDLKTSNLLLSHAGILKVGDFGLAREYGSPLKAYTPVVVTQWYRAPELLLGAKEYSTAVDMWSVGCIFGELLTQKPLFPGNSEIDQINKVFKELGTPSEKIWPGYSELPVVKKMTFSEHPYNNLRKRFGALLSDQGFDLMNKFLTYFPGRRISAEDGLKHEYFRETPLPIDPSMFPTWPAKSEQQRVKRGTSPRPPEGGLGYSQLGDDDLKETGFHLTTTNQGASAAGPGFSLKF

[2] = target: 5'-AMP-activated protein kinase catalytic subunit alpha-1 (Homo sapiens, UniProt Q13131); settings: at 10 µM
Sequence of 5'-AMP-activated protein kinase catalytic subunit alpha-1 (Q13131 whole entry, looked up): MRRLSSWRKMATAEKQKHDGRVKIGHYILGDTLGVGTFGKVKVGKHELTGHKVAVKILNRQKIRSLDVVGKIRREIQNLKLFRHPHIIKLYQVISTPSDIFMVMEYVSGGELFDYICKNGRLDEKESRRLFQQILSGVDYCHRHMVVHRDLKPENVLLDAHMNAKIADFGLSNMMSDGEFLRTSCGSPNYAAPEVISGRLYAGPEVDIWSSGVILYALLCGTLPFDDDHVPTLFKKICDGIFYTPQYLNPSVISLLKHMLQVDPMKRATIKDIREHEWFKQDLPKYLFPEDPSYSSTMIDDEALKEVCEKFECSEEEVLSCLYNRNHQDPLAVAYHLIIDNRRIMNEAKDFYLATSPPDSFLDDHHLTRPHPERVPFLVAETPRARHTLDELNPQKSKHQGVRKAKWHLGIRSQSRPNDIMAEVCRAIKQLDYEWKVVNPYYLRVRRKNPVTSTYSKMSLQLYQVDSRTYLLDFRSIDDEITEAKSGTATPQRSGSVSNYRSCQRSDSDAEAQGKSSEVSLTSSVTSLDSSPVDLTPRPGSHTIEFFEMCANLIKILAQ

[3] = target: CDK4/Cyclin D3 (Homo sapiens) (UniProt P11802+P30281); assay: Selectivity interaction (KinomeScan (DiscoverX)) EUB0000595a CDK4; type: protein-complex assay; settings: at 10 µM
[4] = target: T2, Receptor-interacting serine/threonine-protein kinase 4 (Homo sapiens) (UniProt P57078); assay: Selectivity interaction (KinomeScan (DiscoverX)) EUB0000595a RIPK4; settings: at 10 µM
T2 sequence (whole entry): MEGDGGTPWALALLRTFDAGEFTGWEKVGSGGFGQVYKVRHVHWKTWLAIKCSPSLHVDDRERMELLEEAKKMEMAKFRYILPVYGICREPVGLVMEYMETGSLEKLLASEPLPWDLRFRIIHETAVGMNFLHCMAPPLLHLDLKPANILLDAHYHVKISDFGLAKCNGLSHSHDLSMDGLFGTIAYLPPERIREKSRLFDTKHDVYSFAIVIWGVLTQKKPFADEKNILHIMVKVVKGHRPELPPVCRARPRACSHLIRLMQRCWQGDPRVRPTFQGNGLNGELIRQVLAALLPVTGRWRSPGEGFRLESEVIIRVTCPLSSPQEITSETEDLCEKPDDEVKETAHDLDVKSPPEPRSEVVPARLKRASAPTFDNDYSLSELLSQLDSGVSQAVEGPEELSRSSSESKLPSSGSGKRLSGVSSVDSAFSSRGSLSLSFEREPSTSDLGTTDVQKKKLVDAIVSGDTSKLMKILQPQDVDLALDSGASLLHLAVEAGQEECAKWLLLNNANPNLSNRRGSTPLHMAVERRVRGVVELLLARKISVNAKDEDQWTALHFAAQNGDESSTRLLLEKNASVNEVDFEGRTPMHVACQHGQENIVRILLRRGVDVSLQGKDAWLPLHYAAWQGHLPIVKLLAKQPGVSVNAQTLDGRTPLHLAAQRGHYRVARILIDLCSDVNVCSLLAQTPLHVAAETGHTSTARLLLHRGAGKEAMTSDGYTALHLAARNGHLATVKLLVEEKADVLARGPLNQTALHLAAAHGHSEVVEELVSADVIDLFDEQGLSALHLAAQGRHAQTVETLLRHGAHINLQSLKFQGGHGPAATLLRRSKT

[5] = target: T3, Serine/threonine-protein kinase Sgk3 (Homo sapiens) (UniProt Q96BR1); assay: Selectivity interaction (KinomeScan (DiscoverX)) EUB0000045b SGK3
T3 sequence (whole entry): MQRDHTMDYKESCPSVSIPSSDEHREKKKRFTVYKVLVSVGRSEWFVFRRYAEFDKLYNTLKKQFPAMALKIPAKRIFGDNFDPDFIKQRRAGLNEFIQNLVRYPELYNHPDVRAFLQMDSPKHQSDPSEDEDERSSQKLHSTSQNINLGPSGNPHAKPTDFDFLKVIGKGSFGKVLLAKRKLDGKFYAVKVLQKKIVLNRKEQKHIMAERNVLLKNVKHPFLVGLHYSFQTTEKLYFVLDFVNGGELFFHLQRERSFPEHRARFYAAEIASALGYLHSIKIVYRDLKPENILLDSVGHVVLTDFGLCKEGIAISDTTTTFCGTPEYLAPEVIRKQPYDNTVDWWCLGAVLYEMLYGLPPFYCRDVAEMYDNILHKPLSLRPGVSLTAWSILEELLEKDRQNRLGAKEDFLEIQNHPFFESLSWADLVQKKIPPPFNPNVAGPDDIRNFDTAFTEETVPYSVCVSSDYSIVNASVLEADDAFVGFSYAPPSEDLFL

[6] = target: Tyrosine-protein kinase receptor Tie-1 (Homo sapiens) (UniProt P35590); assay: Selectivity interaction (KinomeScan (DiscoverX)) EUB0001079a TIE1; settings: at 1 µM
Sequence of Tyrosine-protein kinase receptor Tie-1 (Homo sapiens) (P35590 whole entry, canonical isoform): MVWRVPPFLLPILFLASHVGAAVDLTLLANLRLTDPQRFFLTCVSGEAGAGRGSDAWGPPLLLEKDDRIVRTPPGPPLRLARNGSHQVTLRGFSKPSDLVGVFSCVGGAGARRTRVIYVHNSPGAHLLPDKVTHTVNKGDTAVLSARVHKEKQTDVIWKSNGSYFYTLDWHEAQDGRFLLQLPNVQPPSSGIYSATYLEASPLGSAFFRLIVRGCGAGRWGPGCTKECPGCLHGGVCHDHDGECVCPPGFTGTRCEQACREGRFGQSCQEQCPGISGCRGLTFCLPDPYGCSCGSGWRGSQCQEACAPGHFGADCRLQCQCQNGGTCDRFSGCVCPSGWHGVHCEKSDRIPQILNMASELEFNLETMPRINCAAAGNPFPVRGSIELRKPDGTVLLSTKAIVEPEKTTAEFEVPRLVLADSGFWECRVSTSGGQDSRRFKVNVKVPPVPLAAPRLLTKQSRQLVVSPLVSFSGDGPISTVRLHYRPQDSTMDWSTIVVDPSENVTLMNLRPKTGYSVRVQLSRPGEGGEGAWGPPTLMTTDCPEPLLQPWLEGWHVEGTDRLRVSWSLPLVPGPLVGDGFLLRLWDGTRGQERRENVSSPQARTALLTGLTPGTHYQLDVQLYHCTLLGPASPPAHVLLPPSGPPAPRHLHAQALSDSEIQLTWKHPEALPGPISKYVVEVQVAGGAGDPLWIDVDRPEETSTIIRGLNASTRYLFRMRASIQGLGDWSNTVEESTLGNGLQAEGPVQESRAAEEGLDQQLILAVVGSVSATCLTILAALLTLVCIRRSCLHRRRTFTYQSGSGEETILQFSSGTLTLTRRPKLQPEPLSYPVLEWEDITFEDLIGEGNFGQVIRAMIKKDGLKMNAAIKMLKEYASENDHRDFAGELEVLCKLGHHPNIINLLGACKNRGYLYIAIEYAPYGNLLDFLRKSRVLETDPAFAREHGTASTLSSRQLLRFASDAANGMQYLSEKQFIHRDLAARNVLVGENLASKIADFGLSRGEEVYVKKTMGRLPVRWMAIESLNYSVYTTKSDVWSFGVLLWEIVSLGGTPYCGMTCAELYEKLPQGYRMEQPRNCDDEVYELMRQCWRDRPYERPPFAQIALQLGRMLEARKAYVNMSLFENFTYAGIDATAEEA

[7] = target: Phosphatidylinositol 4,5-bisphosphate 3-kinase catalytic subunit gamma isoform (Homo sapiens) (UniProt P48736); assay: Selectivity interaction (Kinase panel (KiNativ target engagement assay in Jurkat cells)) EUB0001635a PIK3CG; type: cell-based; settings: at 1 µM
Sequence of Phosphatidylinositol 4,5-bisphosphate 3-kinase catalytic subunit gamma isoform (Homo sapiens) (P48736 whole entry, looked up, canonical isoform): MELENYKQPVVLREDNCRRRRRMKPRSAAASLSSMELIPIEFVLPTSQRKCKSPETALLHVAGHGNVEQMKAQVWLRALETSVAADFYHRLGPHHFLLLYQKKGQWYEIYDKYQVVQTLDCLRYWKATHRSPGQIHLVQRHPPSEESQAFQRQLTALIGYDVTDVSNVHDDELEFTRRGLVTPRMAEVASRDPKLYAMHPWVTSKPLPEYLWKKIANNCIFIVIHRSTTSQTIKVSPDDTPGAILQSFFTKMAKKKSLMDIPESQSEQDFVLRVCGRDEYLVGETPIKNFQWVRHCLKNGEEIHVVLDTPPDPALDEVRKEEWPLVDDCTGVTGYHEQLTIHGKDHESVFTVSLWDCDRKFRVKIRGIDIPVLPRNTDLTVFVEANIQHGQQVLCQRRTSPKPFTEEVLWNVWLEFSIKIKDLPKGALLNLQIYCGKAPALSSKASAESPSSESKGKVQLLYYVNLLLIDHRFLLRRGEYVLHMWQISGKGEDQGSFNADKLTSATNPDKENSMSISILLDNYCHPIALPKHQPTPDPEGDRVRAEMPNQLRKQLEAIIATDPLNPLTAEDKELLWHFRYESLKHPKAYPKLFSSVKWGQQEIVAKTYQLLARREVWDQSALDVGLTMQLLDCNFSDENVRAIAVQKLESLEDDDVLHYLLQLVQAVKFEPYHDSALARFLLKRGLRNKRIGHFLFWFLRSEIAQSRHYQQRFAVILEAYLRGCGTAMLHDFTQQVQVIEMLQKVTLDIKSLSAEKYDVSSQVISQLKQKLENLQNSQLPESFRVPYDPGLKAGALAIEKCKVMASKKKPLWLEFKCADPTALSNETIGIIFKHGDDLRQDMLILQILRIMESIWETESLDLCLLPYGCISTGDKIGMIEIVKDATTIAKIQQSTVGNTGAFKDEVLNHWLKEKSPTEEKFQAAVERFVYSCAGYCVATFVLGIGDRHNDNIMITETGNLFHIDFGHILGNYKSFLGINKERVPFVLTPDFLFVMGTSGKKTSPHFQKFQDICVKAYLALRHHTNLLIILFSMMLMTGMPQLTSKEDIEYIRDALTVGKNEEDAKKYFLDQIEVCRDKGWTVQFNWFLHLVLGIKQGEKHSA

[8] = target: Serine/threonine-protein kinase 32A (Homo sapiens) (UniProt Q8WU08); assay: Selectivity interaction (KinomeScan (DiscoverX)) EUB0001619a STK32A; settings: at 1 µM
Sequence of Serine/threonine-protein kinase 32A (Homo sapiens) (Q8WU08 whole entry): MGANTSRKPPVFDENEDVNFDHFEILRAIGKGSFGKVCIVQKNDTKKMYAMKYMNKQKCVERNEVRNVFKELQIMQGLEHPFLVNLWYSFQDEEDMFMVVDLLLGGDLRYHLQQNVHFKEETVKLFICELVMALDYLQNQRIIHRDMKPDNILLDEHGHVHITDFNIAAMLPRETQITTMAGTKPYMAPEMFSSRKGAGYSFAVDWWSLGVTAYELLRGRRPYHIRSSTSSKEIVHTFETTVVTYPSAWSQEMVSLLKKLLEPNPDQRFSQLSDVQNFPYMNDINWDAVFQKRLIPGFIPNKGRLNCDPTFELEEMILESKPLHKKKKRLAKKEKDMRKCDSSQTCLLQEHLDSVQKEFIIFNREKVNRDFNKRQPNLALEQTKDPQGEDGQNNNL

SMILES: CNC(=O)Nc1ccc(-c2nc(N3CC4CCC(C3)O4)c3cnn(C4CCC5(CC4)OCCO5)c3n2)cc1
% of control [1]: 97%

% of control [2]: 100%
SMILES: CCN(CC)CCCCNc1ncc2cc(-c3cc(OC)cc(OC)c3)c(NC(=O)NC(C)(C)C)nc2n1

SMILES: COCC(=O)NC/C=C/c1ccc2ncnc(Nc3ccc(Oc4ccc(C)nc4)c(C)c3)c2c1 [CP-724714]
% of control [3]: 100%
% of control [4]: 100%

SMILES: C=CC(=O)Nc1cc(-n2c(=O)ccc3cnc4ccc(-c5ccc(NS(C)(=O)=O)cc5)cc4c32)ccc1C
% of control ([5]; at 1 µM): 100%
% of control ([5]; at 10 µM): 100%

SMILES: Nc1cnc(N2CCc3cc(S(=O)(=O)Nc4c(F)cc(Cl)cc4F)cc(N4CCCC4=O)c32)nc1 [TP-020n]
% of control [6]: 100%

SMILES: C=CC(=O)Nc1ccc(C(=O)Nc2[nH]nc3c2CN(C(=O)N[C@H](CN(C)C)c2ccccc2)C3(C)C)cc1
% of engagement [7]: -3.7%

SMILES: N#Cc1cccc(-c2c[nH]c3ncnc(N4CCOCC4)c23)c1
% of control [8]: 100%
